Values quoted from earlier work, collected in patent US20250134875A1, “FORMULATIONS OF ALK-5 KINASE INHIBITORS AND USES THEREOF” (Thirona Bio, Inc., priority 2023, published 2025).

Legend:
[1] = system: mouse fibroblasts and fat precursor cells; details: cited from earlier work
[2] = system: fibroblasts derived from human PD plaque; details: cited from earlier work
rat PD models = details: cited from earlier work
[3] = system: TGF-β-induced expression of ACTA2, Col1a1 and Col3a1; details: 3D culture model of DC-specimens; cited from earlier work
A549 cells = details: cited from earlier work
mouse skin = details: cited from earlier work
[4] = system: human outer root sheath cells; details: cited from earlier work
TNF = biological target: T1, TNF (Homo sapiens, UniProt P01375); details: cited from earlier work
T1 construct: host or cells: Dupuytren's nodules of patients (in vivo, endogenous)
T1 sequence (P01375 77-233 limits assumed): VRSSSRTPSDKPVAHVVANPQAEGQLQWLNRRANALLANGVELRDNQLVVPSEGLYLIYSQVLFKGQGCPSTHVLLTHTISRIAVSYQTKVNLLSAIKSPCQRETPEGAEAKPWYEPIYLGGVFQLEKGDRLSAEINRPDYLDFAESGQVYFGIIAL

TGF-β = details: cited from earlier work

Compound: Cc1cccc(-c2nn(C(=S)Nc3ccccc3)cc2-c2ccnc3ccccc23)n1 [Formulation A83-01]
- Brown fat adipogenesis [1]: induced brown fat adipogenesis

Compound: Cc1cccc(-c2[nH]c(Cc3cccc(C(N)=O)c3)nc2-c2ccc3nccnc3c2)n1 [IN-1130]
- TGF-β1-induced production of PAI-1, fibronectin, collagen 1 and collagen 4 [2]: significantly reduced
- Curvature and fibrosis (rat PD models): improved curvature and fibrosis

Compound: Cc1cccc(-c2nn3c(c2-c2ccnc4ccc(C(N)=O)cc24)CCC3)n1 [LY2157299]
- Brown fat adipogenesis [1]: induced brown fat adipogenesis

Compound: NC(=O)c1ccc(-c2nc(-c3ccc4c(c3)OCO4)c(-c3ccccn3)[nH]2)cc1 [SB-431542]
- TGF-β-induced expression of ACTA2, Col1a1 and Col3a1 [3]: suppressed
- Brown fat adipogenesis [1]: induced brown fat adipogenesis

Compound: Cc1csc(-c2[nH]cnc2-c2ccc3ncsc3c2)n1 [TP0427736]
- Smad2/3 phosphorylation (A549 cells): inhibited
- Average hair follicle length during transition from late anagen to catagen phase (mouse skin; repeated topical application): suppressed the shortening
- Smad2 phosphorylation in mouse skin (mouse skin; topical application): significantly decreased
- Growth inhibition of human outer root sheath cells [4]: decreased the growth inhibition

Compound: COc1ccc(/C=C/C(=O)Nc2ccccc2C(=O)O)cc1OC [Tanilast]
- Brown fat adipogenesis [1]: induced brown fat adipogenesis

Compound: adalimumab
- Phenotype of myofibroblasts (TNF; Phase 2a trial, intranodular): downregulated the phenotype of myofibroblasts
- Nodule harness and size by ultrasound (TNF; Phase 2b trial): decreased nodule harness and size

Compound: fresolimumab: TGF-β neutralizing antibody which targets all three TGF-β isoforms
- Clinical skin disease (fibrosis), modified Rodnan skin score (MRSS) (TGF-β; systemic sclerosis patients (N=15), 1 mg/kg twice or 5 mg/kg once, p=0.0002 within 3 weeks): dramatically reversed
- Pro-fibrotic TGF-β gene expression profiles in the skin (TGF-β; systemic sclerosis patients): decreased
- Systemic side effects (TGF-β; systemic sclerosis patients): significant systemic side effects, notably bleeding
